SMILES strings stand for the structures.

The assay addresses α-glucosidase. Briefly: α-glucosidase inhibition assay (PNPG substrate, absorbance at 405 nm). The class given is biochemical. Conditions: substrate PNPG 2.5 mM, enzyme 1.0 U/mL, PPBS pH 6.86, 37 °C, triplicate; read-out: α-Glucosidase inhibitory activity IC50. The procedure:
UV spectra were recorded on a UV-2401PC spectrometer (Shimadzu, Kyoto, Japan). Optical rotations were measured in methanol on JASCO P-1020 digital polarimeter (Jasco, Tokyo, Japan). IR spectra were scanned on a Bruker Tensor-27 Fourier transform infrared spectrometer with KBr pellets (Bruker, German). High-resolution (HR) ESI mass spectra data were measured on a Waters API QSTAR Pulsar spectrometer. 1D and 2D NMR spectra were obtained in pyridine-d5 on Bruker Ascend-400, 600 and 800 MHz NMR spectrometers with tetramethylsilane (TMS) as internal standard (Bruker, Zurich, Switzerland). Column chromatography (CC) was performed on macroporous resin (D-101, Tianjin, China), Lichroprep RP-18 (Merck, German), sephadex LH-20 (Pharmacia, USA), silica gel (200–300 mesh, Qingdao, China), and Semi-preparative HPLC was performed on an Agilent 1260 liquid chromatography system equipped with a ZORBAX SB-C18 column (5 μm, 9.4 × 250 mm, 3.0 mL/min) and a DAD detector. Fractions were detected by TLC, and spots were visualized by spraying with 10% H2SO4 in EtOH, followed by heating. α-glucosidase inhibitory activity was evaluated on the basis of the ability of the compounds to decrease glucosidase activity and then inhibit the breaking of glycosidic bonds in p-nitrophenyl-α-D-glucopyranoside (PNPG). Water was purchased from wahaha group co. LTD. Acetonitrile (chromatographic grade) was purchased from OCEANPAK (Sweden). Common organic solvents are industrial grade, used after re-distillation. PNPG was obtained from Sigma Chemical Co. (St. Louis, Mo, USA). α-glucosidase was purchased from Shanghai yuanye biotechnology Co., Ltd. Potassium phosphate buffer solution (PPBS) was obtained from Shanghai Yidian Scientific Instrument Co., Ltd. 96-well plates was purchased from Nest biotechnology co., LTD.
The α-glucosidase inhibition assay was performed according to the method adapted from the literature with slight modifications. α-glucosidase can cut glycosidic bonds in the PNPG to produce 4-nitrophenol (yellow), then measured its absorbance can determine the activity of enzyme. The test samples and ursolic acid (positive control) were dissolved in dimethylsulfoxide (DMSO), and then diluted with PPBS (pH 6.86) to the required concentration. The α-glucosidase (1.0 U/mL) and substrate (PNPG, 2.5 mM) were dissolved in PPBS. Sample wells included 60 μL of PPBS, 10 μL of test substances, 30 μL of enzyme stock solution, and incubated at 37 °C for 10 min. After the pre-incubation phase, 40 μL of PNPG solution was added and the mixture was incubated for another 20 min at 37 °C. Finally, 80 μL Na2CO3 (0.2 M) solution was added to the sample wells to stop the reaction. The absorbance of the reaction mixture was recorded at 405 nm using a microplate reader. All samples were measured in triplicate. The inhibition rate (%) was calculated by the following formula: Inhibition (%) = [1 − (Asample/Acontrol)] × 100.
The term IC50 denotes the concentration that gives 50% inhibition. In the case of `COC(C=C(C)C)CC(C)C1CCC2(C)C3C=CC45OC(OC)C3(CCC12C)C4CCC(OC1OC(CO)C(O)C(O)C1O)C5(C)C` [Compound 1, (19S,23R)-5β,19-epoxy-19,23-dimethoxycucurbita-6,24-dien-3β-ol 3-O-β-D-allopyranoside], the IC50 was over 100 µM.

In the case of `CC(C)=CC=CC(C)C1CCC2(C)C3C=CC45OCC3(CCC12C)C4CCC(OC1OC(CO)C(O)C(O)C1O)C5(C)C` [Compound 4, 5β,19-epoxy-cucurbita-6,22E,24-trien-3β-ol 3-O-β-D-allopyranoside], the IC50 was over 100 µM.

For the molecule `C=C(C)/C=C/C[C@@H](C)[C@H]1CC[C@@]2(C)[C@@H]3C=C[C@@]45OC[C@]3(CC[C@]12C)[C@@H]4CC[C@H](O[C@@H]1O[C@H](CO)[C@@H](O)[C@H](O)[C@H]1O)C5(C)C` [Compound 8, charantoside III], the IC50 came out at 36.4 ± 3.03 µM.

Regarding `COC(C)(C)/C=C/C[C@@H](C)[C@H]1CC[C@@]2(C)[C@@H]3[C@@H](O[C@@H]4O[C@H](CO)[C@@H](O)[C@H](O)[C@H]4O)C=C4C(CC[C@H](O)C4(C)C)[C@]3(C=O)CC[C@]12C` (stereo partly shown) [Compound 9, momordicoside K], the IC50 came out at 28.4 ± 2.08 µM.

In the case of `C=C(C)/C=C/C[C@@H](C)[C@H]1CC[C@@]2(C)[C@@H]3C=C[C@@]45O[C@@H](OC)[C@]3(CC[C@]12C)[C@@H]4CC[C@H](O[C@@H]1O[C@H](CO)[C@@H](O)[C@H](O)[C@H]1O)C5(C)C` [Compound 7, charantoside I], the IC50 came out at 35.1 ± 4.15 µM.

Take `CO[C@H]1O[C@]23C=C[C@@H]4[C@@]1(CC[C@]1(C)[C@@H]([C@H](C)C[C@@H](C=C(C)C)OC)CC[C@@]41C)C2CC[C@H](O[C@@H]1O[C@H](CO)[C@@H](O)[C@@H](O)[C@H]1O)C3(C)C` (stereo partly drawn) [Compound 3, (19S,23S)-5β,19-epoxy-19,23-dimethoxycucurbita-6,24-dien-3β-ol 3-O-β-D-allopyranoside]: the IC50 was over 100 µM.

As for `COC(C=C(C)C)CC(C)C1CCC2(C)C3C=CC45OC(OC)C3(CCC12C)C4CCC(OC1OC(CO)C(O)C(O)C1O)C5(C)C` [Compound 2, (19S,23R)-5β,19-epoxy-19,23-dimethoxycucurbita-6,24-dien-3β-ol 3-O-β-D-glucopyranoside], the IC50 was 63.3 ± 3.04 µM.

As to `C=C(C)/C=C/C[C@@H](C)[C@H]1CC[C@@]2(C)[C@@H]3C=C[C@@]45O[C@@H](OC)[C@]3(CC[C@]12C)C4CC[C@H](O[C@@H]1O[C@H](CO)[C@@H](O)[C@@H](O)[C@H]1O)C5(C)C` (stereo partly drawn) [Compound 6, (19R,23E)-5β,19-epoxy-19-methoxycucurbita-6,23,25-trien-3β-ol 3-O-β-D-allopyranoside], the IC50 is over 100 µM.

As to `COC1OC23C=CC4C1(CCC1(C)C(C(C)CC=CC(C)(C)O)CCC41C)C2CCC(OC1OC(CO)C(O)C(O)C1O)C3(C)C` [Compound 5, 19(S)-methoxy-5β,19-epoxycucurbita-6,23-dien-3β,25-diol 3-O-β-D-glucopyranoside], the IC50 was 59.1 ± 4.67 µM.

For the molecule `CO[C@H]1C=C2C(CC[C@H](O[C@@H]3O[C@H](CO)[C@@H](O)[C@@H](O)[C@H]3O)C2(C)C)[C@]2(C=O)CC[C@]3(C)[C@@H]([C@H](C)C/C=C/C(C)(C)OC)CC[C@@]3(C)[C@H]12` (stereo partly drawn) [Compound 10, 7β,25-dimethoxycucurbita-5(6),23(E)-dien-19-al 3-O-β-D-allopyranoside], the IC50 is over 100 µM.

Source of the values: paper PMC7253571, “Cucurbitane-Type Triterpene Glycosides from Momordica charantia and Their α-Glucosidase Inhibitory Activities” (Natural Products and Bioprospecting, 2020).
